The IC50 is the concentration that inhibits the measured activity by half.

Sequence of CD73 (P21589 27-574): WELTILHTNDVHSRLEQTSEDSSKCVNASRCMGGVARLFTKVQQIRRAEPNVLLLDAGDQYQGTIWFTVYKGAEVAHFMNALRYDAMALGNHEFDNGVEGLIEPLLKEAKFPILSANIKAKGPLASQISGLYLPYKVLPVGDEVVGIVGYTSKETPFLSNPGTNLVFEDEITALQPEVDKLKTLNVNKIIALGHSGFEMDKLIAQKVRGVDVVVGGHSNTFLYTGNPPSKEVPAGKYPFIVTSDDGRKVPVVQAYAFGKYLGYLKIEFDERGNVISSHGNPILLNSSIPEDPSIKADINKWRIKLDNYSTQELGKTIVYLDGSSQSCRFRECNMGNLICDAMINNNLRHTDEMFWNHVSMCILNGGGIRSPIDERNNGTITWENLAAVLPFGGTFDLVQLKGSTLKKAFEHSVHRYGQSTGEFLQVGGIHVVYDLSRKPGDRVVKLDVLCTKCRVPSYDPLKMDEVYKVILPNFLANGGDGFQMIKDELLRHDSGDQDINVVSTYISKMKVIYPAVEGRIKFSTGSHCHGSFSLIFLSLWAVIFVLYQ

For the test, the target named is CD73 (Homo sapiens (Human), UniProt P21589). Put plainly: Biochemical CD73 Assay (Malachite Green free phosphate detection). Conditions: recombinant human CD73 2 nM, AMP 40 μM, 45 min at 37° C. As for the experimental part:
Activity of recombinant CD73 was measured by quantification of free phosphate using the Malachite Green detection system (R&D Systems #DY996). Test compounds were solubilized in DMSO and dispensed into 384-well polystyrene plates in a 8-point 3× titration in duplicates. Then, 10 μL of 4 nM human CD73 enzyme (Novoprotein #C446) in phosphate-free assay buffer (10 mM HEPES, pH 7.4, 125 mM NaCl, 1 mM KCl, 10 mM glucose, 2 mM MgCl2) was added to the plates. The compound and enzyme were incubated for 15 min at RT. Then, 10 μL of 80 μM AMP (Sigma Aldrich #A1752) in the assay buffer was added and the reaction mixture was incubated for 45 min at 37° C. The final concentrations of CD73 and AMP in the reaction were 2 nM and 40 μM, respectively. The reaction was stopped by adding 5 μL of Malachite Green reagent A and incubating for 10 min at RT, followed by addition of 5 μL of Malachite Green reagent B and incubation for 20 min at RT. Absorbance was then read at 620 nm with the Flexstation spectrophotometer (Molecular Devices). The IC50 values were determined using a four-parameter nonlinear regression curve fit.
On to `COC[C@@](OC[C@H]1O[C@@H](n2ncc3c(NC4CCCC4)nc(Cl)nc32)[C@H](O)[C@@H]1O)(C(=O)N=[S@@](C)(=O)NC(=O)OC)P(=O)(O)O` [Example 7, ((S)-2-(((2R,3S,4R,5R)-5-(6-Chloro-4-(cyclopentylamino)-1H-pyrazolo[3,4-d]pyrimidin-1-yl)-3,4-dihydroxytetrahydrofuran-2-yl)methoxy)-3-methoxy-1-(((R)-((methoxycarbonyl)amino)(methyl)(oxo)-λ^6-sulfaneylidene)amino)-1-oxopropan-2-yl)phosphonic Acid], for which the IC50 is 1.7 nM.

Regarding `CNC(=O)N[S@](C)(=O)=NC(=O)[C@@](COC)(OC[C@H]1O[C@@H](n2ncc3c(NC4CCCC4)cc(Cl)nc32)[C@H](O)[C@@H]1O)P(=O)(O)O` [Example 29, ((S)-2-(((2R,3S,4R,5R)-5-(6-chloro-4-(cyclopentylamino)-1H-pyrazolo[3,4-b]pyridin-1-yl)-3,4-dihydroxytetrahydrofuran-2-yl)methoxy)-3-methoxy-1-(((R)-methyl(3-methylureido)(oxo)-λ^6-sulfaneylidene)amino)-1-oxopropan-2-yl)phosphonic Acid], the half-maximal inhibitory concentration (IC50) was found to be 10 nM.

For `COC[C@](OC[C@H]1O[C@@H](n2ncc3c(NC4CCCC4)nc(Cl)nc32)[C@H](O)[C@@H]1O)(C(=O)N=[S@@](C)(N)=O)P(=O)(O)O` [Example 4, ((2R)-1-((Amino(methyl)(oxo)-λ^6-sulfaneylidene)amino)-2-(((2R,3S,4R,5R)-5-(6-chloro-4-(cyclopentylamino)-1H-pyrazolo[3,4-d]pyrimidin-1-yl)-3,4-dihydroxytetrahydrofuran-2-yl)methoxy)-3-methoxy-1-oxopropan-2-yl)phosphonic Acid], the half-inhibitory concentration (IC50) was determined as 275 nM.

In the case of `COC[C@@](OC[C@H]1O[C@@H](n2ncc3c(NC4CCCC4)nc(Cl)nc32)[C@H](O)[C@@H]1O)(C(=O)N=[S@@](C)(=O)NC(=O)c1cccnc1)P(=O)(O)O` [Example 27, ((2S)-2-(((2R,3S,4R,5R)-5-(6-chloro-4-(cyclopentylamino)-1H-pyrazolo[3,4-d]pyrimidin-1-yl)-3,4-dihydroxytetrahydrofuran-2-yl)methoxy)-3-methoxy-1-((methyl(nicotinamido)(oxo)-λ^6-sulfaneylidene)amino)-1-oxopropan-2-yl)phosphonic Acid], the IC50 turned out to be 7.8 nM.

As to `COC[C@@](OC[C@H]1O[C@@H](n2ncc3c(NC4CCCC4)nc(Cl)nc32)[C@H](O)[C@@H]1O)(C(=O)N=[S@](C)(=O)NC(=O)c1cnn(C)c1)P(=O)(O)O` (single isomer, unassigned) [Example 24], the IC50 was determined as 2.3 nM.

`COC[C@](OC[C@H]1O[C@@H](n2ncc3c(NC4CCCC4)nc(Cl)nc32)[C@H](O)[C@@H]1O)(C(=O)N=[S@](C)(N)=O)P(=O)(O)O` [Example 2, ((2R)-1-((Amino(methyl)(oxo)-λ^6-sulfaneylidene)amino)-2-(((2R,3S,4R,5R)-5-(6-chloro-4-(cyclopentylamino)-1H-pyrazolo[3,4-d]pyrimidin-1-yl)-3,4-dihydroxytetrahydrofuran-2-yl)methoxy)-3-methoxy-1-oxopropan-2-yl)phosphonic Acid]: the half-inhibitory concentration (IC50) stood at 19 nM.

Take `COC[C@@](OC[C@H]1O[C@@H](n2ncc3c(NC4CCCC4)nc(Cl)nc32)[C@H](O)[C@@H]1O)(C(=O)N=S(C)(=O)NC(=O)C1COC1)P(=O)(O)O` (single isomer, unassigned) [Example 21]: the half-maximal inhibitory concentration (IC50) is 5.1 nM.

With `COC[C@@](OC[C@H]1O[C@@H](n2ncc3c(NC4CCCC4)cc(Cl)nc32)[C@H](O)[C@@H]1O)(C(=O)N=[S@@](C)(=O)NC(C)=O)P(=O)(O)O` [Example 31, ((S)-1-(((R)-acetamido(methyl)(oxo)-λ^6-sulfaneylidene)amino)-2-(((2R,3S,4R,5R)-5-(6-chloro-4-(cyclopentylamino)-1H-pyrazolo[3,4-b]pyridin-1-yl)-3,4-dihydroxytetrahydrofuran-2-yl)methoxy)-3-methoxy-1-oxopropan-2-yl)phosphonic Acid], the IC50 amounted to 0.5 nM.

For `COC[C@@](OC[C@H]1O[C@@H](n2ncc3c(NC4CCCC4)cc(Cl)nc32)[C@H](O)[C@@H]1O)(C(=O)N=[S@](C)(=O)NC(=O)C1CC1)P(=O)(O)O` [Example 28, ((S)-2-(((2R,3S,4R,5R)-5-(6-chloro-4-(cyclopentylamino)-1H-pyrazolo[3,4-b]pyridin-1-yl)-3,4-dihydroxytetrahydrofuran-2-yl)methoxy)-1-(((S)-cyclopropanecarboxamido(methyl)(oxo)-λ^6-sulfaneylidene)amino)-3-methoxy-1-oxopropan-2-yl)phosphonic Acid], the IC50 was found to be 1 nM.

Take `COC[C@](OC[C@H]1O[C@@H](n2ncc3c(NC4CCCC4)nc(Cl)nc32)[C@H](O)[C@@H]1O)(C(=O)N=[S@@](C)(=O)NC(C)=O)P(=O)(O)O` [Example 6, ((R)-1-(((R)-Acetamido(methyl)(oxo)-λ^6-sulfaneylidene)amino)-2-(((2R,3S,4R,5R)-5-(6-chloro-4-(cyclopentylamino)-1H-pyrazolo[3,4-d]pyrimidin-1-yl)-3,4-dihydroxytetrahydrofuran-2-yl)methoxy)-3-methoxy-1-oxopropan-2-yl)phosphonic Acid]: the 50% inhibitory concentration (IC50) is 220 nM.

Regarding `COC[C@](OC[C@H]1O[C@@H](n2ncc3c(NC4CCCC4)nc(Cl)nc32)[C@H](O)[C@@H]1O)(C(=O)N=[S@@](C)(=O)NC(=O)OC)P(=O)(O)O` [Example 8, ((R)-2-(((2R,3S,4R,5R)-5-(6-Chloro-4-(cyclopentylamino)-1H-pyrazolo[3,4-d]pyrimidin-1-yl)-3,4-dihydroxytetrahydrofuran-2-yl)methoxy)-3-methoxy-1-(((R)-((methoxycarbonyl)amino)(methyl)(oxo)-λ^6-sulfaneylidene)amino)-1-oxopropan-2-yl)phosphonic Acid], the IC50 was 879 nM.

Turning to `COC[C@@](OC[C@H]1O[C@@H](n2ncc3c(NC4CCCC4)nc(Cl)nc32)[C@H](O)[C@@H]1O)(C(=O)N=[S@@](C)(=O)NC(=O)c1ccc(F)cc1)P(=O)(O)O` (single isomer, unassigned) [Example 25], the IC50 was determined as 1.13 nM.

As for `CNC(=O)N[S@@](C)(=O)=NC(=O)[C@@](COC)(OC[C@H]1O[C@@H](n2ncc3c(NC4CCCC4)cc(Cl)nc32)[C@H](O)[C@@H]1O)P(=O)(O)O` [Example 30, ((S)-2-(((2R,3S,4R,5R)-5-(6-chloro-4-(cyclopentylamino)-1H-pyrazolo[3,4-b]pyridin-1-yl)-3,4-dihydroxytetrahydrofuran-2-yl)methoxy)-3-methoxy-1-(((S)-methyl(3-methylureido)(oxo)-λ^6-sulfaneylidene)amino)-1-oxopropan-2-yl)phosphonic Acid], the 50% inhibitory concentration (IC50) was found to be 0.6 nM.

Regarding `COC[C@@](OC[C@H]1O[C@@H](n2ncc3c(NC4CCCC4)nc(Cl)nc32)[C@H](O)[C@@H]1O)(C(=O)N=[S@](C)(=O)NC(=O)C1COC1)P(=O)(O)O` [Example 22, ((2S)-2-(((2R,3S,4R,5R)-5-(6-chloro-4-(cyclopentylamino)-1H-pyrazolo[3,4-d]pyrimidin-1-yl)-3,4-dihydroxytetrahydrofuran-2-yl)methoxy)-3-methoxy-1-((methyl(oxetane-3-carboxamido)(oxo)-λ^6-sulfaneylidene)amino)-1-oxopropan-2-yl)phosphonic Acid], the concentration for half-maximal inhibition (IC50) came to 0.21 nM.

For the molecule `COC[C@@](OC[C@H]1O[C@@H](n2ncc3c(NC4CCCC4)nc(Cl)nc32)[C@H](O)[C@@H]1O)(C(=O)N=[S@@](C)(=O)NC(C)=O)P(=O)(O)O` [Example 5, ((S)-1-(((R)-Acetamido(methyl)(oxo)-λ^6-sulfaneylidene)amino)-2-(((2R,3S,4R,5R)-5-(6-chloro-4-(cyclopentylamino)-1H-pyrazolo[3,4-d]pyrimidin-1-yl)-3,4-dihydroxytetrahydrofuran-2-yl)methoxy)-3-methoxy-1-oxopropan-2-yl)phosphonic Acid], the 50% inhibitory concentration (IC50) was 1.6 nM.

As for `COC[C@@](OC[C@H]1O[C@@H](n2ncc3c(NC4CCCC4)nc(Cl)nc32)[C@H](O)[C@@H]1O)(C(=O)N=[S@@](C)(=O)NC(=O)c1cnn(C)c1)P(=O)(O)O` (single isomer, unassigned) [Example 23], the 50% inhibitory concentration (IC50) is 0.47 nM.

`COC[C@@](OC[C@H]1O[C@@H](n2ncc3c(NC4CCCC4)cc(Cl)nc32)[C@H](O)[C@@H]1O)(C(=O)N=[S@@](C)(=O)NC(=O)C(C)C)P(=O)(O)O` [Example 33, ((2S)-2-(((2R,3S,4R,5R)-5-(6-chloro-4-(cyclopentylamino)-1H-pyrazolo[3,4-b]pyridin-1-yl)-3,4-dihydroxytetrahydrofuran-2-yl)methoxy)-1-((isobutyramido(methyl)(oxo)-λ^6-sulfaneylidene)amino)-3-methoxy-1-oxopropan-2-yl)phosphonic Acid]: the IC50 was 11 nM.

Turning to `COC[C@@](OC[C@H]1O[C@@H](n2ncc3c(NC4CCCC4)nc(Cl)nc32)[C@H](O)[C@@H]1O)(C(=O)N=[S@](C)(=O)NC(=O)c1ccc(F)cc1)P(=O)(O)O` (single isomer, unassigned) [Example 26], the half-inhibitory concentration (IC50) was found to be 2.36 nM.

Regarding `COC[C@@](OC[C@H]1O[C@@H](n2ncc3c(NC4CCCC4)cc(Cl)nc32)[C@H](O)[C@@H]1O)(C(=O)N=[S@](C)(=O)NC(C)=O)P(=O)(O)O` [Example 32, ((S)-1-(((S)-acetamido(methyl)(oxo)-λ^6-sulfaneylidene)amino)-2-(((2R,3S,4R,5R)-5-(6-chloro-4-(cyclopentylamino)-1H-pyrazolo[3,4-b]pyridin-1-yl)-3,4-dihydroxytetrahydrofuran-2-yl)methoxy)-3-methoxy-1-oxopropan-2-yl)phosphonic Acid], the IC50 is 1 nM.

The values are drawn from patent US20240140980A1, “HETEROCYCLIC INHIBITORS OF CD73 FOR TREATMENT OF DISEASE” (Teon Therapeutics, Inc., priority 2022, published 2024).
